Test results reported in patent US10988459B2 (priority 2015, dated 2021).
Read-outs that look alike come from different tables or passages of the source.

Target: human RIP1 kinase domain (2-375) (Homo sapiens (Human), UniProt Q13546)
Experiment: biochemical
Type: biochemical
Conditions: 50 uM ATP
Outline: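 Ki^app comes from Morrison tight-binding fits of fractional activity versus compound concentration. Activity was read as ADP production, via tracer displacement lowering fluorescence polarization (633 nm laser). Conditions: 2 h, 50 nM insect-cell-expressed enzyme, 50 uM ATP, 30 mM MgCl2, 1 mM DTT, 0.5% DMSO, pH 7.5 Hepes.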

Sequence of human RIP1 kinase domain (2-375) (Q13546 2-375): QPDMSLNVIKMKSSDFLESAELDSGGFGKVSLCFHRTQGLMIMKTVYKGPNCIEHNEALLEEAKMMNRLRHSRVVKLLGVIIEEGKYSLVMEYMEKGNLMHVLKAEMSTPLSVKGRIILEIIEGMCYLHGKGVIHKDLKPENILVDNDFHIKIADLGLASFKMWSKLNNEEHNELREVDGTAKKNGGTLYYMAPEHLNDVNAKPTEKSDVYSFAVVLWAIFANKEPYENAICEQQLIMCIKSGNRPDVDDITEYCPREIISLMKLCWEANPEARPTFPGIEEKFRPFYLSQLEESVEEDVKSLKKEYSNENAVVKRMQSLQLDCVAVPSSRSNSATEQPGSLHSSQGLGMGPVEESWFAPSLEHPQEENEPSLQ

## CN1C(=O)C(NC(=O)c2ncn(Cc3ccccc3)n2)CCn2nc3c(c21)CS(=O)(=O)C3 (stereo not drawn) [Example 140, 1-benzyl-N-(1-methyl-9,9-dioxido-2-oxo-1,2,3,4,5,10-hexahydro-8H-thieno[3′,4′:3,4]pyrazolo[1,5-a][1,3]diazepin-3-yl)-1H-1,2,4-triazole-3-carboxamide]
Human RIP1 kinase domain (2-375), 2 hours incubation, Transcreener ADP assay, read-out: RIP1 Ki
  Ki: 316 nM

## CC(C1CCn2nnc(C(=O)N[C@H]3COc4ccccc4N(C)C3=O)c2C1)C(F)(F)F (stereo partly drawn) [Example 252, N—((S)-5-methyl-4-oxo-2,3,4,5-tetrahydrobenzo[b][1,4]oxazepin-3-yl)-5-(1,1,1-trifluoropropan-2-yl)-4,5,6,7-tetrahydro-[1,2,3]triazolo[1,5-a]pyridine-3-carboxamide]
Human RIP1 kinase domain (2-375), Transcreener ADP assay, 2 hours incubation, read-out: RIP1 Ki
  Ki: 70.7 nM

## Cc1ncn2c1N(C)C(=O)[C@H](NC(=O)c1ncn(Cc3c(F)cccc3F)n1)CC2 [Example 581, 1-[(2,6-difluorophenyl)methyl]-N-(3R)-1,9-dimethyl-2-oxo-4,5-dihydro-3H-imidazo[1,5-a][1,3]diazepin-3-yl-1,2,4-triazole-3-carboxamide]
tight-binding apparent inhibition constant, human RIP1 kinase domain (2-375) 50 nM, 2 hours, read-out: Ki
  Ki: 47 nM
